We go through 23 compounds from US9725449B2, “Tricyclic compounds as anticancer agents” (BRISTOL-MYERS SQUIBB COMPANY, priority 2015, dated 2017).

Where only a bound is given, the exact number is not on record here.

As usually defined, the IC50 is the concentration that gives 50% inhibition.

For this assay, the target named is BRD4 (Homo sapiens, UniProt O60885). In words: Time resolved fluorescence resonance energy transfer (TR-FRET) binding assay, bromodomain BRD4. The note with it: one of the FRET assays described; read-out: FRET BRD4 IC50. A general note: TR-FRET usually uses a lanthanide donor and a delayed reading to cut background.
Take `[2H]C([2H])([2H])c1nnn(C)c1-c1cnc2c3ccc(N4C[C@@H](C)O[C@@H](C)C4)nc3n([C@H](c3ccccc3F)C3CCOCC3)c2c1` [Example 237, 11-[(2R,6S)-2,6-Dimethylmorpholin-4-yl]-8-[(S)-(2-fluorophenyl)(oxan-4-yl)methyl]-5-[4-(^2H3)methyl-1-methyl-1H-1,2,3-triazol-5-yl]-3,8,10-triazatricyclo[7.4.0.0^2,^7]trideca-1(13),2(7),3,5,9,11-hexaene]: the half-maximal inhibitory concentration (IC50) was under 1 nM.
With `COc1nccc2c3ncc(-c4c(C)nnn4C)cc3n([C@H](c3ccccc3)C3CCOCC3)c12` [Example 13, 5-(Dimethyl-1H-1,2,3-triazol-5-yl)-10-methoxy-8-[(S)-oxan-4-yl(phenyl)methyl]-3,8,11-triazatricyclo[7.4.0.0^2,^7]trideca-1(13),2(7),3,5,9,11-hexaene], the concentration for half-maximal inhibition (IC50) is under 1 nM.
On to `[2H]C([2H])([2H])c1nnn(C)c1-c1cnc2c3ccc(-c4ccc(C(C)(C)O)s4)nc3n([C@H](c3ccccc3)C3CCOCC3)c2c1` [Example 176, 2-(5-{5-[4-(^2H3)Methyl-1-methyl-1H-1,2,3-triazol-5-yl]-8-[(S)-oxan-4-yl(phenyl)methyl]-3,8,10-triazatricyclo[7.4.0.0^2,^7]trideca-1(9),2(7),3,5,10,12-hexaen-11-yl}thiophen-2-yl)propan-2-ol], for which the IC50 was under 10 nM.
In the case of `[2H]C([2H])([2H])c1nnn(C)c1-c1cnc2c3cncc(S(C)(=O)=O)c3n([C@H](c3ccccc3)C3CCOCC3)c2c1` [Example 286, 10-Methanesulfonyl-5-[4-(^2H3)methyl-1-methyl-1H-1,2,3-triazol-5-yl]-8-[(S)-oxan-4-yl(phenyl)methyl]-3,8,12-triazatricyclo[7.4.0.0^2,^7]trideca-1(13),2(7),3,5,9,11-hexaene], the IC50 is under 10 nM.
On to `Cc1nnn(C)c1-c1cnc2c3cncc(S(C)(=O)=O)c3n(C(c3ccccc3)C3CCC(F)(F)CC3)c2c1` (centres unmarked) [Example 290, 8-[(4,4-Difluorocyclohexyl)(phenyl)methyl]-5-(dimethyl-1H-1,2,3-triazol-5-yl)-10-methanesulfonyl-3,8,12-triazatricyclo[7.4.0.0^2,^7]trideca-1(13),2(7),3,5,9,11-hexaene], for which the IC50 is under 1 nM.
On to `COc1ncc(CO)c2c1c1ncc(-c3c(C)nnn3C)cc1n2[C@H](c1ccccc1)C1CCOCC1` [Example 136, [5-(Dimethyl-1H-1,2,3-triazol-5-yl)-13-methoxy-8-[(S)-oxan-4-yl(phenyl)methyl]-3,8,12-triazatricyclo[7.4.0.0^2,^7]trideca-1(9),2,4,6,10,12-hexaen-10-yl]methanol], for which the IC50 was under 10 nM.
To `Cc1nnn(C)c1-c1cnc2c3ccnc(Cl)c3n([C@H](c3ccccc3F)C3CCOCC3)c2c1` [Example 5, 10-Chloro-5-(dimethyl-1H-1,2,3-triazol-5-yl)-8-[(S)-(2-fluorophenyl)(oxan-4-yl)methyl]-3,8,11-triazatricyclo[7.4.0.0^2,^7]trideca-1(13),2(7),3,5,9,11-hexaene] belongs under 10 nM.
In the case of `[2H]C([2H])([2H])c1nnn(C)c1-c1cnc2c3c(NCC(F)(F)F)ncc(S(C)(=O)=O)c3n([C@H](c3ncccc3F)C3CCOCC3)c2c1` [Example 341, 8-[(S)-(3-Fluoropyridin-2-yl)(oxan-4-yl)methyl]-10-methanesulfonyl-5-[4-(^2H3)methyl-1-methyl-1H-1,2,3-triazol-5-yl]-N-(2,2,2-trifluoroethyl)-3,8,12-triazatricyclo[7.4.0.0^2,^7]trideca-1(13),2(7),3,5,9,11-hexaen-13-amine] it was under 1 nM; in that of `Cc1nnn(C)c1-c1cnc2c3ccc(Cl)nc3n([C@H](c3ccccc3F)C3CCOCC3)c2c1` [Example 226, 11-Chloro-5-(dimethyl-1H-1,2,3-triazol-5-yl)-8-[(S)-(2-fluorophenyl)(oxan-4-yl)methyl]-3,8,10-triazatricyclo[7.4.0.0^2,^7]trideca-1(13),2(7),3,5,9,11-hexaene], under 10 nM.
For the compound `Cc1nnn(C)c1-c1cnc2c3c(Cl)nc(C(C)(C)O)cc3n([C@H](c3ccccc3)C3CCOCC3)c2c1` [Example 294, 2-{13-chloro-5-[4-(^2H3)methyl-1-methyl-1H-1,2,3-triazol-5-yl]-8-[(S)-oxan-4-yl(phenyl)methyl]-3,8,12-triazatricyclo[7.4.0.0^2,^7]trideca-1(13),2(7),3,5,9,11-hexaen-11-yl}propan-2-ol], the IC50 was under 10 nM.
Turning to `[2H]C([2H])([2H])c1nnn(C)c1-c1cnc2c3c(OCC4CC4)ncc(S(C)(=O)=O)c3n([C@H](c3ccccc3F)C3CCOCC3)c2c1` [Example 76, 13-(Cyclopropylmethoxy)-8-[(S)-(2-fluorophenyl)(oxan-4-yl)methyl]-10-methanesulfonyl-5-[4-(^2H3)methyl-1-methyl-1H-1,2,3-triazol-5-yl]-3,8,12-triazatricyclo[7.4.0.0^2,^7]trideca-1(13),2(7),3,5,9,11-hexaene], the IC50 was under 1 nM.
As to `COc1ncc(S(C)(=O)=O)c2c1c1ncc(-c3c(C)nnn3C)cc1n2C(c1ccccc1)C1CCC(F)(F)CC1` (single isomer, unassigned) [Example 91, 8-[(4,4-Difluorocyclohexyl)(phenyl)methyl]-5-(dimethyl-1H-1,2,3-triazol-5-yl)-10-methanesulfonyl-13-methoxy-3,8,12-triazatricyclo[7.4.0.0^2,^7]trideca-1(13),2(7),3,5,9,11-hexaene], the half-inhibitory concentration (IC50) was under 1500 nM.
As for `Cc1nnn(C)c1-c1cnc2c3c(NS(C)(=O)=O)ncc(S(C)(=O)=O)c3n([C@H](c3ccccc3)C3CCOCC3)c2c1` [Example 105, N-[5-(Dimethyl-1H-1,2,3-triazol-5-yl)-10-methanesulfonyl-8-[(S)-oxan-4-yl(phenyl)methyl]-3,8,12-triazatricyclo[7.4.0.0^2,^7]trideca-1(13),2(7),3,5,9,11-hexaen-13-yl]methanesulfonamide], the IC50 is under 10 nM.
Take `[2H]C([2H])([2H])c1nnn(C)c1-c1cnc2c3c(OC)ncc(S(C)(=O)=O)c3n(C(c3ncccc3F)C3CCC(F)(F)CC3)c2c1` (centres unmarked) [Example 73, 8-[(4,4-Difluorocyclohexyl)(3-fluoropyridin-2-yl)methyl]-10-methanesulfonyl-13-methoxy-5-[4-(^2H3)methyl-1-methyl-1H-1,2,3-triazol-5-yl]-3,8,12-triazatricyclo[7.4.0.0^2,^7]trideca-1(13),2(7),3,5,9,11-hexaene]: the IC50 is under 1500 nM.
For the compound `Cc1nnn(C)c1-c1cnc2c3ccc(N4CCN(C(=O)C5CC5)CC4)nc3n([C@H](c3ccc(F)cc3)C3CCOCC3)c2c1` [Example 258, 11-(4-Cyclopropanecarbonylpiperazin-1-yl)-5-(dimethyl-1H-1,2,3-triazol-5-yl)-8-[(S)-(4-fluorophenyl)(oxan-4-yl)methyl]-3,8,10-triazatricyclo[7.4.0.0^2,^7]trideca-1(13),2(7),3,5,9,11-hexaene], the IC50 is under 10 nM.
In the case of `Cc1nnn(C)c1-c1cnc2c3ccc(NS(C)(=O)=O)nc3n([C@H](c3ccccc3)C3CCOCC3)c2c1` [Example 208, N-[5-(Dimethyl-1H-1,2,3-triazol-5-yl)-8-[(S)-oxan-4-yl(phenyl)methyl]-3,8,10-triazatricyclo[7.4.0.0^2,^7]trideca-1(9),2(7),3,5,10,12-hexaen-11-yl]methanesulfonamide] it was under 10 nM; in that of `[2H]C([2H])([2H])c1nnn(C)c1-c1cnc2c3ccc(C(C)(C)O)nc3n([C@H](c3ccccc3)C3CCOCC3)c2c1` [Example 175, 2-{5-[4-(^2H3)Methyl-1-methyl-1H-1,2,3-triazol-5-yl]-8-[(S)-oxan-4-yl(phenyl)methyl]-3,8,10-triazatricyclo[7.4.0.0^2,^7]trideca-1(9),2(7),3,5,10,12-hexaen-11-yl}propan-2-ol], under 10 nM.
`[2H]C([2H])([2H])c1nnn(C)c1-c1cnc2c3c(OC)nc(C(C)(C)O)cc3n(C(c3ccccc3)C3CCC(F)(F)CC3)c2c1` (centres unmarked) [Example 346, 2-{8-[(4,4-Difluorocyclohexyl)(phenyl)methyl]-13-methoxy-5-[4-(^2H3)methyl-1-methyl-1H-1,2,3-triazol-5-yl]-3,8,12-triazatricyclo[7.4.0.0^2,^7]trideca-1(13),2(7),3,5,9,11-hexaen-11-yl}propan-2-ol]: the IC50 is under 1 nM.
As for `COc1nccc2c3ncc(-c4c(C)nnn4C)cc3n(C(c3cc(F)ccc3F)C3CCOCC3)c12` (racemic) [Example 26, 8-[(2,5-Difluorophenyl)(oxan-4-yl)methyl]-5-(dimethyl-1H-1,2,3-triazol-5-yl)-10-methoxy-3,8,11-triazatricyclo[7.4.0.0^2,^7]trideca-1(13),2(7),3,5,9,11-hexaene], the IC50 was under 10 nM.
To `Cc1nnn(C)c1-c1cnc2c3ccc(-c4c(C)nnn4C)nc3n([C@H](c3ccccc3)C3CCOCC3)c2c1` [Example 163, 5,11-Bis(dimethyl-1H-1,2,3-triazol-5-yl)-8-[(S)-oxan-4-yl(phenyl)methyl]-3,8,10-triazatricyclo[7.4.0.0^2,^7]trideca-1(9),2(7),3,5,10,12-hexaene] belongs under 1 nM.
In the case of `Cc1nnn(C)c1-c1cnc2c3ccc(N4CCC(C)(O)CC4)nc3n([C@H](c3ccccc3)C3CCOCC3)c2c1` [Example 180, 1-[5-(Dimethyl-1H-1,2,3-triazol-5-yl)-8-[(S)-oxan-4-yl(phenyl)methyl]-3,8,10-triazatricyclo[7.4.0.0^2,^7]trideca-1(9),2(7),3,5,10,12-hexaen-11-yl]-4-methylpiperidin-4-ol] it was under 1 nM.
To `Cc1nnn(C)c1-c1cnc2c3cc(S(C)(=O)=O)ncc3n([C@H](c3ccccc3F)C3CCOCC3)c2c1` [Example 32, 5-(Dimethyl-1H-1,2,3-triazol-5-yl)-8-[(S)-(2-fluorophenyl)(oxan-4-yl)methyl]-12-methanesulfonyl-3,8,11-triazatricyclo[7.4.0.0^2,^7]trideca-1(13),2(7),3,5,9,11-hexaene] belongs under 10 nM; to `[2H]C([2H])([2H])c1nnn(C)c1-c1cnc2c3c(OC)nc(Cl)cc3n([C@H](c3ncccc3F)C3CCOCC3)c2c1` [Example 305, 11-Chloro-8-[(S)-(3-fluoropyridin-2-yl)(oxan-4-yl)methyl]-13-methoxy-5-[4-(^2H3)methyl-1-methyl-1H-1,2,3-triazol-5-yl]-3,8,12-triazatricyclo[7.4.0.0^2,^7]trideca-1(9),2(7),3,5,10,12-hexaene], under 10 nM.
